In US20220160651A1, “RAPIDLY IMPROVING ENDOTHELIAL FUNCTION, REDUCING ARTERIAL STIFFNESS AND REVERSING CALCIFICATION OF BLOOD VESSELS BY ADMINISTERING VITAMIN K” (KAYDENCE PHARMA AS, priority 2019, published 2022):

Tests used:
Format in all cases: in vivo
ApoE/LDLR−/− mice [1] = assay: Histological assessment of plaque size and composition and vessel wall area in BCA (Example 2); details: two months
Source text: Plaque size and composition as well as vessel wall area (VWA) in BCA—Histological assessment, cross-section method, BCA cross-sections: total 13000 slides, Photographed: 1214 slides
For the determination of atherosclerotic plaque area and composition BCA was dissected, fixed in 4% buffered formalin and embedded in paraffin. 5 μm-thick serial sections of BCA were collected from proximal, middle and distal parts of artery. Originally developed staining with Unna's orcein combined with Martius, Scarlet and Blue trichrome (OMSB), was applied on every tenth section (50 μm interval between each section) for visualization of collagen, elastin, fibrin, red blood cells and vascular smooth muscle cells within atherosclerotic plaque. The areas of particular components of atherosclerotic plaque as well as artery lumen and wall were determined after Columbus-based software processing (FIG. 1B) using a previously developed algorithm [Gajda M, Jasztal A, Banasik T, Jasek-Gajda E, Chlopicki S. Combined orcein and martius scarlet blue (OMSB) staining for qualitative and quantitative analyses of atherosclerotic plaques in brachiocephalic arteries in apoE/LDLR−/− mice. Histochem Cell Biol 2017. doi:10.1007/s00418-017-1538-81.

ApoE/LDLR−/− mice [2] = assay: MRI assessment of endothelium-dependent vasodilatation (FMD in femoral artery, Ach response in abdominal aorta), young mice (Example 3)
Procedure: Mice were randomly assigned to one of four experimental groups: control (untreated group) and three groups treated with vitamin K2 at a dose of 0.05, 0.5, and 5 mg/kg b.w./day, respectively. End-point measurements were performed at the age of 10-16 weeks.
Magnetic resonance imaging (MRI) experiments were performed using a 9.4T scanner (BioSpec 94/20 USR, Bruker, Germany) located in the Department of Magnetic Resonance Imaging, Institute of Nuclear Physics, Polish Academy of Sciences in Krakow. During the experiment, mice were anaesthetized using isoflurane (Aerrane, Baxter Sp. z o. o., Poland, 1.7 vol %) in an oxygen and air (1:2) mixture and imaged in the supine position. Activity of the heart, respiration, and body temperature (maintained at 37° C. using circulating warm water) were monitored using a Monitoring and Gating System (SA Inc., Stony Brook, N.Y., USA).
Endothelial function was assessed based on vascular responses to acetylcholine (Ach) administration in brachiocephalic artery (BCA), left common carotid artery (LCA) (FIGS. 6 A and B) and abdominal aorta (AA) (FIG. 6C) as well as to responses to increase in flow (flow-mediated dilatation, FMD) in femoral artery (FA) (FIG. 6D) as described in Bar A, Skorka T, Jasinski K, Sternak M, Bartel Ż, Tyrankiewicz U, et al. Retrospectively-gated MRI for in vivo assessment of endothelium-dependent vasodilatation and endothelial permeability in murine models of endothelial dysfunction. NMR Biomed 2016; 29(8):1088.; Sternak M, Bar A, Adamski M G, Mohaissen T, Marczyk B, Kieronska A, et al. The Deletion of Endothelial Sodium Channel α (αENaC) Impairs Endothelium-Dependent Vasodilation and Endothelial Barrier Integrity in Endotoxemia in Vivo. Front Pharmacol 2018; 9:178. doi:10.3389/fphar.2018.00178.; and Bar A, Olkowicz M, Tyrankiewicz U, Kus E, Jasinski K, Smolenski R T, et al. Functional and Biochemical Endothelial Profiling In Vivo in a Murine Model of Endothelial Dysfunction; Comparison of Effects of 1-Methylnicotinamide and Angiotensin-converting Enzyme Inhibitor. Front Pharmacol 2017; 8:183. doi:10.3389/fphar.2017.00183.).
Vasomotor response was examined by comparing two time-resolved 3D images of the vessels prior to and 25 minutes after intraperitoneal Ach administration (Sigma-Aldrich, Poznan Poland: 50 μl, 16.6 mg/kg), as well as prior to and 5 minutes after vessel occlusion. Images were acquired using the cine IntraGate™ FLASH 3D sequence, reconstructed with the IntraGate 1.2.b.2 macro (Bruker). End-diastolic volumes of vessels were analyzed using ImageJ software 1.46r (NIH Bethesda, Md., USA) and scripts written in Matlab (MathWorks, Natick, Mass., USA). Imaging parameters included the following: repetition time (TR)—6.4 ms, echo time (TE)—1.4 ms, field of view (FOV) −30×30×5 mm3, matrix size—256×256×30, flip angle (FA)—30°, and number of accumulations (NA)—15, reconstructed to 7 cardiac frames. Total scan time was 10 minutes.

ApoE/LDLR−/− mice [3] = assay: Nitrite and nitrate concentration in plasma, older mice (Example 3); details: 0.03 and 10 mg/kg b.w./day, eight weeks
ApoE/LDLR−/− mice [4] = assay: Histological assessment of area and composition of atherosclerotic plaque in BCA, older mice (Example 3); details: eight weeks
Source text: For the determination of atherosclerotic plaque area and composition isolated brachiocephalic artery (BCA) was dissected, fixed in 4% buffered formalin, and embedded in paraffin. 5 μm-thick serial sections of BCA were collected from the proximal to distal part of the artery. Staining with Unna's orcein combined with Martius, Scarlet and Blue trichrome (OMSB) was applied on every tenth section (50 μm interval between each section) for quantitative analysis of atherosclerotic plaques. The areas of particular components of atherosclerotic plaque as well as artery lumen and wall were determined after Columbus-based software processing (FIG. 9) using specially-designed algorithm as described in Gajda M, Jasztal A, Banasik T, Jasek-Gajda E, Chlopicki S. Combined orcein and martius scarlet blue (OMSB) staining for qualitative and quantitative analyses of atherosclerotic plaques in brachiocephalic arteries in apoE/LDLR−/− mice. Histochem Cell Biot 2017. doi:10.1007/s00418-017-1538-8. The parameters analyzed include vessel wall area (VWA), internal vessel area (IVA=plaque area+lumen area), plaque area (expressed as percent of internal wall area: plaque/IWA), and lumen area (expressed as percent of internal wall area: lumen/IWA).

[5] = 0.05 mg/kg b.w./day, eight weeks
[6] = 0.05 mg/kg b.w./day, four weeks, 15-week-old mice

Structure (SMILES): CC(C)=CCC/C(C)=C/CC/C(C)=C/CC/C(C)=C/CC/C(C)=C/CC/C(C)=C/CC/C(C)=C/CC1=C(C)C(=O)c2ccccc2C1=O [MK-7, menaquinone-7]
- decrease in vessel wall area (VWA) of BCA (ApoE/LDLR−/− mice [1]; low and high dose (0.03 and 10 mg/kg b.w./day)): about 5%
- decrease of lipid core expressed as percent of plaque (ApoE/LDLR−/− mice [1]; low and high dose): about 17%
- effect on plaque size (ApoE/LDLR−/− mice [1]; low or high dose): did not result in a beneficial effect on plaque size
- plaque and lumen area expressed as percent of IWA (ApoE/LDLR−/− mice [1]; low or high dose): did not change
- internal wall area (IWA) (ApoE/LDLR−/− mice [1]; lower dose 0.03 mg/kg b.w./day): decreased only in the middle part of the vessel
- content of collagen in plaque (ApoE/LDLR−/− mice [1]; treated vs untreated groups): lack of differences between treated and untreated groups
- Ach response in AA, volume changes (ApoE/LDLR−/− mice [2]; [5]): −0.65%
- FMD in FA, volume changes (ApoE/LDLR−/− mice [2]; [5]): 28.34%
- Ach response in AA, volume changes (ApoE/LDLR−/− mice [2]; [6]): −1.59%
- FMD in FA, volume changes (ApoE/LDLR−/− mice [2]; [6]): 33.26%
- Ach response in AA, volume changes (ApoE/LDLR−/− mice [2]; 0.5 mg/kg b.w./day, two weeks): 1.52%
- FMD in FA, volume changes (ApoE/LDLR−/− mice [2]; 0.5 mg/kg b.w./day, two weeks): 28.57%
- Ach response in AA, volume changes (ApoE/LDLR−/− mice [2]; 5 mg/kg b.w./day, two weeks): 0.16%
- FMD in FA, volume changes (ApoE/LDLR−/− mice [2]; 5 mg/kg b.w./day, two weeks): 26.55%
- concentration of NO3− in plasma (ApoE/LDLR−/− mice [3]): did not change significantly
- plaque size compared with non-treated mice (ApoE/LDLR−/− mice [4]; low (0.03 mg/kg b.w./day) or high dose (10 mg/kg b.w./day)): not different
- decrease in vessel wall area (VWA) of BCA (ApoE/LDLR−/− mice [4]; low and high dose, 24-week-old mice): about 5%
- plaque and lumen area expressed as percent of IWA (ApoE/LDLR−/− mice [4]; low or high dose): did not change
- internal wall area (IWA) (ApoE/LDLR−/− mice [4]; lower dose): decreased only in the middle part of the vessel
